Experimental findings from patent publication US9512175B2, “Macrocyclic inhibitors of flaviviridae viruses” (Gilead Sciences, Inc., priority 2012, dated 2016) are described below.

The conditions of data set [1]: from C=Cc1ccc2ccc([C@@H](C)OC(=O)[C@@H]3CCCN(C(=O)[C@H](C)NC(=O)[C@@H](NC(=O)[C@@H](/C=C/C)CC4CC4)C(C)C)N3)nc2c1; rcm bond; 21-membered ring; Hoveyda-Grubbs II (3x20 mol%); 1,2-dichloroethane; 2.44 mM; 80.0 °C.
For data set [2] the following is noted: rcm bond.
The next data set addresses cyclophilin A (Homo sapiens, UniProt P62937). Put plainly: Cyclophilin A TR-FRET competitive binding assay. The note with it: IC50 ranges, competition with CsA-Cy5 for His-tagged CypA, two-hour incubation. As to the method:
Cyclophilin A TR-FRET Competitive Binding Assay
Inhibitor potency was measured using a competitive binding assay with a time-resolved fluorescence resonance energy transfer (TR-FRET) readout. […] An IC50 value was calculated using a four-parameter logistic fit.
(Time-resolved FRET reads energy transfer from a long-lived donor to a nearby acceptor.)

Data set [3] deals with HCV replicon (Replicon 1a). The data set can be described thus: anti-HCV activity in Huh-7 cell line harboring a HCV replicon (Replicon 1a). Format: cell-based. The note with it: Hepatitis C virus, Huh-7, 72 h. In general terms: Replicon systems follow genome replication, usually without infectious particles.
Setting [4] is: read-out: Replicon 1a % inhibition at 1 μM, 1 μM, human hepatoma Huh-7 HCV replicon cells, 3 days, luciferase readout.

Like-named read-outs stand apart in the source and are kept apart here.

cyclophilin A, sequence (P62937 whole entry, species assumed): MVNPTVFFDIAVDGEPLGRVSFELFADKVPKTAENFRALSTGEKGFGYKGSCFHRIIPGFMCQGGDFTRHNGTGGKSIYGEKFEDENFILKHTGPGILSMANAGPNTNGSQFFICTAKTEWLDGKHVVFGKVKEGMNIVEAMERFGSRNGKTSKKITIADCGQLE

Regarding `CC(C)[C@@H]1NC(=O)[C@H](CC2CC2)C=Cc2ccc3ccc(nc3c2)[C@@H](C)OC(=O)[C@@H]2CCCN(N2)C(=O)[C@H](C)NC1=O`, in data set [1], the ring closure, yield after HPLC amounted to 1.3%. With `CC(C)[C@@H]1NC(=O)C=Cc2cc3cc(ccc3cn2)[C@@H](C)NC(=O)[C@@H]2CCCN(N2)C(=O)[C@H](C)NC1=O`, the ring closure, isolated yield in data set [2] (from C=Cc1cc2cc([C@@H](C)NC(=O)[C@@H]3CCCN(C(=O)[C@H](C)NC(=O)[C@@H](NC(=O)/C=C/C)C(C)C)N3)ccc2cn1, 20-membered ring, Hoveyda-Grubbs II (2 x 10 mol%), toluene, 3.86 mM) was 1.2%. Molecule `CC(C)[C@@H]1NC(=O)CC=Cc2cc3cc(ccc3cn2)[C@@H](C)NC(=O)[C@@H]2CCCN(N2)C(=O)[C@H](C)NC1=O` registered a ring closure, isolated yield in data set [2] (from C=CCC(=O)N[C@H](C(=O)N[C@@H](C)C(=O)N1CCC[C@@H](C(=O)N[C@H](C)c2ccc3cnc(C=C)cc3c2)N1)C(C)C, 21-membered ring, Hoveyda-Grubbs II (2 x 10 mol%), toluene, 3.86 mM) of 1%. Molecule “(E)-pent-3-enoyl-hPhe-Ala-Piz-O-(R)-1-(3-vinyl-isoquinolin-6-yl)ethyl ester?” showed a ring closure, isolated yield in data set [2] (the molecule shown is the open-chain precursor, 21-membered ring, Hoveyda-Grubbs II (portions), chlorobenzene, 4.8 mM, 110.0 °C) of 12%. By inhibition is commonly meant the relative decrease from the control value, in per cent. Take `COCc1cc2ccc3cc2nc1[C@@H](C)OC(=O)[C@@H]1CCCN(N1)C(=O)[C@H](C)NC(=O)[C@H](C(C)C)NC(=O)C(C)(C)/C=C/3` [Compound 137]: the IC50 on cyclophilin A (read-out: TR-FRET) was < 100 nM. Further, the inhibition at 1 µM in data set [3] (setting [4]) is 100%. Consider `C[C@@H]1NC(=O)[C@H](CO)NC(=O)C/C=C/c2cc3cc(ccc3cn2)[C@@H](C)OC(=O)[C@@H]2CCCN(N2)C1=O` [Compound 47], for which, on cyclophilin A (read-out: TR-FRET), the IC50 was 101 to 1000 nM. In addition, in data set [3] (setting [4]), the inhibition at 1 µM turned out to be 9%. Taken in the same sequence, the figures for `CC(C)[C@@H]1NC(=O)C(C)(C)/C=C/c2ccc3ccc(nc3c2)[C@@H](C)OC(=O)[C@@H]2CCCN(N2)C(=O)[C@H](COCC2(C)COC2)NC1=O` [Compound 114] were < 100 nM and 99%. On to `Cc1cc2ccc(/C=C/C(C)(C)C(=O)N[C@H](C(=O)N[C@@H](C)C(=O)N3CCC[C@@H](C(=O)O)N3)C(C)C)cc2nc1[C@@H](C)O` [Compound 162], for which, on cyclophilin A (read-out: TR-FRET), the IC50 fell in the range of 1000 to 10000 nM. In addition, the inhibition at 1 µM in data set [3] (setting [4]) amounted to 0%. As to `CC(C)[C@@H]1NC(=O)C/C=C/c2cnc3ccc(cc3c2)[C@@H](C)OC(=O)[C@@H]2CCCN(N2)C(=O)[C@H](C)NC1=O` [Compound 15], the IC50 at cyclophilin A (read-out: TR-FRET) is < 100 nM. Also, the inhibition at 1 µM in data set [3] (setting [4]) came out at 99%. The corresponding values for `CC(C)[C@@H]1NC(=O)[C@@](C)(CO)/C=C/c2ccc3ccc(cc3c2)[C@@H](C)OC(=O)[C@@H]2CCCN(N2)C(=O)[C@H](C)NC1=O` [Compound 104] are < 100 nM and 98%. For the molecule `CC(C)[C@@H]1NC(=O)C2(CCOCC2)CCc2cc3cc(ccc3cn2)[C@@H](C)OC(=O)[C@@H]2CCCN(N2)C(=O)[C@H](C)NC1=O` [Compound 60], the IC50 at cyclophilin A (read-out: TR-FRET) was 101 to 1000 nM. Besides, the inhibition at 1 µM in data set [3] (setting [4]) is 65%. As to `CC(C)[C@@H]1NC(=O)C2(/C=C/c3ccc4ccc(nc4c3)[C@@H](C)OC(=O)[C@@H]3CCCN(N3)C(=O)[C@H](C)NC1=O)CCN(CC(F)(F)F)CC2` [Compound 136], the IC50 at cyclophilin A (read-out: TR-FRET) was < 100 nM. For the same molecule, the inhibition at 1 µM in data set [3] (setting [4]) came out at 100%. As for `CC(C)[C@@H]1NC(=O)C(C)(C(C)(C)O)/C=C/c2ccc3ccc(nc3c2)[C@@H](C)OC(=O)[C@@H]2CCCN(N2)C(=O)[C@H](C)NC1=O` (stereo partly drawn) [Compound 101], the IC50 on cyclophilin A (read-out: TR-FRET) is < 100 nM. In addition, in data set [3] (setting [4]), the inhibition at 1 µM is 99%. With `CC(C)[C@@H]1NC(=O)C(C)(C)/C=C/c2ccc3ccc(nc3c2)[C@@H](C)OC(=O)[C@@H]2CCCN(N2)C(=O)C(CC2CCOCC2)NC1=O` (single isomer, unassigned) [Compound 113], the IC50 on cyclophilin A (read-out: TR-FRET) was 101 to 1000 nM. Further, the inhibition at 1 µM in data set [3] (setting [4]) is 13%.

Take `CC(C)[C@@H]1NC(=O)C(C)(C)/C=C/c2ccc3ccc(nc3c2)[C@@H](C)OC(=O)[C@]2(C)CCCN(N2)C(=O)[C@H](C)NC1=O` [Compound 119]: at cyclophilin A (read-out: TR-FRET), the IC50 is < 100 nM. The inhibition at 1 µM in data set [3] (setting [4]) was 98%. Consider `CC(C)[C@@H]1NC(=O)[C@@H](C)/C=C/c2ccc3ccc(nc3c2)[C@@H](C)OC(=O)[C@@H]2CCCN(N2)C(=O)[C@H](C)NC1=O` [Compound 27], for which the IC50 at cyclophilin A (TR-FRET) is < 100 nM. For the same molecule, in data set [3] (read-out: Replicon 1a % inhibition at 1 μM), the inhibition at 1 µM came out at 100%.

As for `CC(C)[C@@H]1NC(=O)C2(/C=C/c3ccc4ccc(nc4c3)[C@@H](C)OC(=O)[C@@H]3CCCN(N3)C(=O)[C@H](C)NC1=O)CCN(C(=O)OC(C)(C)C)CC2` [Compound 126], the IC50 on cyclophilin A (read-out: TR-FRET) is < 100 nM. The inhibition at 1 µM in data set [3] (setting [4]) came out at 100%. As for `CC(C)[C@@H]1NC(=O)[C@@]2(/C=C/c3ccc4ccc(nc4c3)[C@@H](C)OC(=O)[C@@H]3CCCN(N3)C(=O)[C@H](C)NC1=O)CCCN2S(C)(=O)=O` [Compound 156], at cyclophilin A (read-out: TR-FRET), the IC50 is < 100 nM. Also, the inhibition at 1 µM in data set [3] (setting [4]) turned out to be 87%. For the molecule `CC(C)[C@@H]1NC(=O)C2(/C=C/c3ccc4ccc(nc4c3)[C@@H](C)OC(=O)[C@@H]3CCCN(N3)C(=O)[C@H](C)NC1=O)CCN(S(C)(=O)=O)CC2` [Compound 130], the IC50 at cyclophilin A (read-out: TR-FRET) was < 100 nM. The inhibition at 1 µM in data set [3] (setting [4]) is 100%. As for `Cc1cc2cc3nc(ccc13)[C@@H](C)OC(=O)C1CCCN(N1)C(=O)[C@@H](C)NC(=O)[C@H](C(C)C)NC(=O)C(C)(C)/C=C/2` (stereo partly drawn) [Compound 148], the IC50 on cyclophilin A (read-out: TR-FRET) is < 100 nM. Moreover, the inhibition at 1 µM in data set [3] (setting [4]) worked out at 100%.

As for `CC(C)[C@@H]1NC(=O)C2(/C=C/c3ccc4ccc(nc4c3)[C@@H](C)OC(=O)[C@@H]3CCCN(N3)C(=O)[C@H](C)NC1=O)CC2` [Compound 152], the IC50 at cyclophilin A (read-out: TR-FRET) is < 100 nM. Besides, the inhibition at 1 µM in data set [3] (setting [4]) stood at 100%. For the molecule `CC(C)[C@@H]1NC(=O)C2(/C=C/c3ccc4ccc(nc4c3)[C@@H](C)OC(=O)[C@@H]3CCCN(N3)C(=O)[C@H](C)NC1=O)CCOC(C)(C)C2` (stereo partly drawn) [Compound 123], on cyclophilin A (read-out: TR-FRET), the IC50 is < 100 nM. Moreover, in data set [3] (setting [4]), the inhibition at 1 µM was found to be 100%. The corresponding values for `CC(C)[C@@H]1NC(=O)C(C)(C)/C=C/c2ccc3ccc(nc3c2)[C@@H](C)OC(=O)[C@@H]2CCCN(N2)C(=O)[C@H](CC(=O)O)NC1=O` [Compound 93] are < 100 nM and 68%.

For the molecule `CC(C)[C@@H]1NC(=O)C2(/C=C/c3ccc4ccc(nc4c3)[C@@H](C)OC(=O)[C@@H]3CCCN(N3)C(=O)[C@H](C)NC1=O)CCN(C(=O)N1CCCC1)CC2` [Compound 133], the IC50 at cyclophilin A (read-out: TR-FRET) was < 100 nM. Further, in data set [3] (setting [4]), the inhibition at 1 µM stood at 98%. With `Cc1cc2ccc3cc2nc1[C@@H](C)OC(=O)[C@@H]1CCCN(N1)C(=O)[C@H](C)NC(=O)[C@H](C(C)C)NC(=O)C(C)(C)/C=C/3` [Compound 163], on cyclophilin A (read-out: TR-FRET), the IC50 was < 100 nM. Moreover, in data set [3] (setting [4]), the inhibition at 1 µM is 100%.

As for `CC(C)[C@@H]1NC(=O)C/C=C/c2ccc3ncc(cc3c2)[C@@H](C)OC(=O)[C@@H]2CCCN(N2)C(=O)[C@H](C)NC1=O` [Compound 14], the IC50 on cyclophilin A (read-out: TR-FRET) is < 100 nM. The inhibition at 1 µM in data set [3] (setting [4]) was found to be 94%.

Turning to `CC(C)[C@@H]1NC(=O)C(C)(C)/C=C/c2ccc3ccc(nc3c2)[C@@H]2CCCN2C(=O)[C@@H]2CCCN(N2)C(=O)[C@H](C)NC1=O` (single isomer, unassigned) [Compound 151], on cyclophilin A (read-out: TR-FRET), the IC50 lay within 1000 to 10000 nM. Further, in data set [3] (setting [4]), the inhibition at 1 µM is 0%. As for `CC1/C=C/c2cc3cc(ccc3cn2)[C@@H](C)OC(=O)[C@@H]2CCCN(N2)C(=O)[C@H](C)NC(=O)[C@H](C(C)C)NC1=O` (stereo partly drawn) [Compound 20], at cyclophilin A (read-out: TR-FRET), the IC50 was < 100 nM. For the same molecule, in data set [3] (setting [4]), the inhibition at 1 µM is 99%. With `CC(C)[C@@H]1NC(=O)C2(/C=C/c3ccc4ccc(nc4c3)[C@@H](C)OC(=O)[C@@H]3CCCN(N3)C(=O)[C@H](C)NC1=O)CCN(S(=O)(=O)CC1CC1)CC2` [Compound 134], at cyclophilin A (read-out: TR-FRET), the IC50 was < 100 nM. Besides, the inhibition at 1 µM in data set [3] (setting [4]) is 99%.
